According to PubChem BioAssay AID1963972 (Molecular Pharmacology Branch, DTP, NCI, 2024):

System: 945468-187-T-J2-PDC spheroids viability
Experiment: Anticancer human tumor 945468-187-T-J2-PDC patient-derived rectal carcinoma cell line growth inhibition [PI3K]
Conditions: spheroids with HUVEC and MSC; for viability, T/C: stronger effect = lower value
Outline: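 Spheroid viability read-out. Co-cultures contained the tumor line plus HUVEC and human MSCs. Each agent was paired with a PI3K inhibitor (inavolisib, alpelisib, duvelisib, copanlisib) across half-log dilutions starting at clinical Cmax, or at 10 microM when Cmax was unknown.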

[1] = curve of first compound, second compound 0.0316 µM
[2] = curve of first compound, second compound 0.1 µM
[3] = curve of first compound, second compound 0.316 µM
[4] = curve of first compound, second compound 1 µM
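Further: spheroids exposed to compounds for seven days before reading.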

Q: How did the IC50 [1] turn out when CCCS(=O)(=O)Nc1ccc(F)c(C(=O)c2c[nH]c3ncc(-c4ccc(Cl)cc4)cc23)c1F + CC(Nc1ncnc2nc[nH]c12)c1cc2cccc(Cl)c2c(=O)n1-c1ccccc1 was run?
A: 4.52 µM

Q: And the IC50 [2]?
A: 5.03 µM

Q: What about the IC50 [3] of the same molecule?
A: 5.4 µM

Q: And the IC50 [4]?
A: 5.82 µM

Q: And the IC50 (curve of first compound, second compound 3.16 µM)?
A: 5.92 µM

Q: And the IC50 (curve of first compound, second compound 10 µM)?
A: 5.63 µM

Q: What about the viability, T/C (second compound 0.0316 µM, first compound 0.0316 µM) of the same molecule?
A: 105%

Q: And the viability, T/C (second compound 0.0316 µM, first compound 0.1 µM)?
A: 103%

Q: And the viability, T/C (second compound 0.0316 µM, first compound 0.316 µM)?
A: 104%

Q: What about the viability, T/C (second compound 0.0316 µM, first compound 1 µM) of the same molecule?
A: 89.2%

Q: What about the viability, T/C (second compound 0.0316 µM, first compound 3.16 µM) of the same molecule?
A: 73.4%

Q: What about the viability, T/C (second compound 0.0316 µM, first compound 10 µM) of the same molecule?
A: 2.78%

Q: What about the viability, T/C (second compound 0.1 µM, first compound 0.0316 µM) of the same molecule?
A: 132%

Q: And the viability, T/C (second compound 0.1 µM, first compound 0.1 µM)?
A: 83.2%

Q: What about the viability, T/C (second compound 0.1 µM, first compound 0.316 µM) of the same molecule?
A: 89%

Q: What about the viability, T/C (second compound 0.1 µM, first compound 1 µM) of the same molecule?
A: 93.8%

Q: And the viability, T/C (second compound 0.1 µM, first compound 3.16 µM)?
A: 83.8%

Q: And the viability, T/C (second compound 0.1 µM, first compound 10 µM)?
A: 4.23%

Q: What about the viability, T/C (second compound 0.316 µM, first compound 0.0316 µM) of the same molecule?
A: 107%

Q: And the viability, T/C (second compound 0.316 µM, first compound 0.1 µM)?
A: 110%

Q: What about the viability, T/C (second compound 0.316 µM, first compound 0.316 µM) of the same molecule?
A: 85.2%

Q: And the viability, T/C (second compound 0.316 µM, first compound 1 µM)?
A: 107%

Q: And the viability, T/C (second compound 0.316 µM, first compound 3.16 µM)?
A: 89.6%

Q: And the viability, T/C (second compound 0.316 µM, first compound 10 µM)?
A: 4.32%

Q: What about the viability, T/C (second compound 1 µM, first compound 0.0316 µM) of the same molecule?
A: 104%

Q: And the viability, T/C (second compound 1 µM, first compound 0.1 µM)?
A: 99.2%

Q: What about the viability, T/C (second compound 1 µM, first compound 0.316 µM) of the same molecule?
A: 93%

Q: What about the viability, T/C (second compound 1 µM, first compound 1 µM) of the same molecule?
A: 99.6%

Q: What about the viability, T/C (second compound 1 µM, first compound 3.16 µM) of the same molecule?
A: 108%

Q: And the viability, T/C (second compound 1 µM, first compound 10 µM)?
A: 4.79%

Q: And the viability, T/C (second compound 3.16 µM, first compound 0.0316 µM)?
A: 98.6%

Q: And the viability, T/C (second compound 3.16 µM, first compound 0.1 µM)?
A: 106%

Q: And the viability, T/C (second compound 3.16 µM, first compound 0.316 µM)?
A: 100%

Q: And the viability, T/C (second compound 3.16 µM, first compound 1 µM)?
A: 98.8%

Q: What about the viability, T/C (second compound 3.16 µM, first compound 3.16 µM) of the same molecule?
A: 113%

Q: What about the viability, T/C (second compound 3.16 µM, first compound 10 µM) of the same molecule?
A: 5.45%

Q: What about the viability, T/C (second compound 10 µM, first compound 0.0316 µM) of the same molecule?
A: 98.2%

Q: And the viability, T/C (second compound 10 µM, first compound 0.1 µM)?
A: 93.9%

Q: What about the viability, T/C (second compound 10 µM, first compound 0.316 µM) of the same molecule?
A: 101%

Q: And the viability, T/C (second compound 10 µM, first compound 1 µM)?
A: 95.6%

Q: What about the viability, T/C (second compound 10 µM, first compound 3.16 µM) of the same molecule?
A: 93.5%

Q: What about the viability, T/C (second compound 10 µM, first compound 10 µM) of the same molecule?
A: 6.8%

Q: Which results are given for Cn1cnc2c(F)c(Nc3ccc(Br)cc3Cl)c(C(=O)NOCCO)cc21 + COc1c(OCCCN2CCOCC2)ccc2c3n(c(=NC(=O)c4cnc(N)nc4)nc12)CCN3?
A: IC50 (curve of first compound, second compound 0.00316 µM): > 3 µM; IC50 (curve of first compound, second compound 0.01 µM): > 3 µM; IC50 [1]: 2.95 µM; IC50 [2]: 0.657 µM; IC50 [3]: < 0.00949 µM; IC50 [4]: < 0.00949 µM; viability, T/C (second compound 0.00316 µM, first compound 0.00949 µM): 99.9%; viability, T/C (second compound 0.00316 µM, first compound 0.03 µM): 129%; viability, T/C (second compound 0.00316 µM, first compound 0.0949 µM): 109%; viability, T/C (second compound 0.00316 µM, first compound 0.3 µM): 94.6%; viability, T/C (second compound 0.00316 µM, first compound 0.949 µM): 85.4%; viability, T/C (second compound 0.00316 µM, first compound 3 µM): 81.5%; viability, T/C (second compound 0.01 µM, first compound 0.00949 µM): 125%; viability, T/C (second compound 0.01 µM, first compound 0.03 µM): 146%; viability, T/C (second compound 0.01 µM, first compound 0.0949 µM): 109%; viability, T/C (second compound 0.01 µM, first compound 0.3 µM): 94.1%; viability, T/C (second compound 0.01 µM, first compound 0.949 µM): 92.5%; viability, T/C (second compound 0.01 µM, first compound 3 µM): 67.5%; viability, T/C (second compound 0.0316 µM, first compound 0.00949 µM): 95%; viability, T/C (second compound 0.0316 µM, first compound 0.03 µM): 111%; viability, T/C (second compound 0.0316 µM, first compound 0.0949 µM): 85.4%; viability, T/C (second compound 0.0316 µM, first compound 0.3 µM): 98.6%; viability, T/C (second compound 0.0316 µM, first compound 0.949 µM): 71.9%; viability, T/C (second compound 0.0316 µM, first compound 3 µM): 49.6%; viability, T/C (second compound 0.1 µM, first compound 0.00949 µM): 102%; viability, T/C (second compound 0.1 µM, first compound 0.03 µM): 94.9%; viability, T/C (second compound 0.1 µM, first compound 0.0949 µM): 88.8%; viability, T/C (second compound 0.1 µM, first compound 0.3 µM): 74.1%; viability, T/C (second compound 0.1 µM, first compound 0.949 µM): 38.3%; viability, T/C (second compound 0.1 µM, first compound 3 µM): 17.7%; viability, T/C (second compound 0.316 µM, first compound 0.00949 µM): 39.9%; viability, T/C (second compound 0.316 µM, first compound 0.03 µM): 40%; viability, T/C (second compound 0.316 µM, first compound 0.0949 µM): 34.1%; viability, T/C (second compound 0.316 µM, first compound 0.3 µM): 21.9%; viability, T/C (second compound 0.316 µM, first compound 0.949 µM): 16.3%; viability, T/C (second compound 0.316 µM, first compound 3 µM): 6.67%; viability, T/C (second compound 1 µM, first compound 0.00949 µM): 20%; viability, T/C (second compound 1 µM, first compound 0.03 µM): 18.6%; viability, T/C (second compound 1 µM, first compound 0.0949 µM): 18.1%; viability, T/C (second compound 1 µM, first compound 0.3 µM): 11.3%; viability, T/C (second compound 1 µM, first compound 0.949 µM): 10.4%; viability, T/C (second compound 1 µM, first compound 3 µM): 5.87%

Q: Which viability, T/C (compound 0.00316 µM) does the source give for COc1c(OCCCN2CCOCC2)ccc2c3n(c(=NC(=O)c4cnc(N)nc4)nc12)CCN3 here?
A: 102% [middle of 8 runs]

Q: And the viability, T/C (compound 0.316 µM)?
A: 40.8% [middle of 8 runs]

Q: What about the viability, T/C (compound 1 µM) of the same molecule?
A: 22.5% [middle of 8 runs]

Q: What about the IC50 (compound alone, run of 04/25/2023) of the same molecule?
A: 250 nM [middle of 7 runs]

Q: How did the viability, T/C (compound 0.0316 µM) turn out when Cc1nc(NC(=O)N2CCCC2C(N)=O)sc1-c1ccnc(C(C)(C)C(F)(F)F)c1 (stereo unspecified) was run?
A: 95.8% [middle of 8 runs]

Q: And the viability, T/C (compound 0.1 µM)?
A: 97.5% [middle of 8 runs]

Q: What about the IC50 (compound alone, run of 04/24/2023) of the same molecule?
A: > 10 µM
